Laboratory results: US8236848B2, “Diindolylmethane for the treatment of HPV infection” (BioResponse, L.L.C., priority 2001, dated 2012)

Tests used:
[1] = human, in vivo
Procedure: The subject is preferably fasting and plasma is preferred over serum. In this method 120 mg or more of formulated DIM (30 mg or more of actual DIM) are taken orally by a subject fasting for at least 4 hours along with 8 ounces of water. Blood samples are obtained on a timed basis between 120 and 180 minutes after ingesting the DIM. Samples obtained during this timeframe are analyzed by a Gas Chromatography Mass Spectrometry (GC-MS) technique. Circulating amounts of DIM during this timeframe are maximal levels following a single dose. […] The following steps describe the method for determining amounts of absorbed DIM in blood. • 1. […] The following ions are monitored: m/z 390 (primary), 391,392 (confirmatory). Area for peak 390 is measured. • 9. […]
For blood level studies adult subjects were studied in a fasting state. […] Sample analysis using a technique for GC-MS measurement of Diindolylmethane, involving acetonitrile extraction, silyation, and GC-MS quantitation was performed as adapted from the literature (Stresser, D. M., Bjeldanes, L. F., Bailey, G. S., et al., “The anticarcinogen 3,3′-Diindolylmethane is an inhibitor of cytochrome P-450”, J. Biochem. Toxicol., 10(4):191-201 (1995)) and described in section 4.2 above. […]

[2] = Urinary Diindolylmethane levels by GC-MS after a single oral dose; format: in vivo, human; conditions: for Urinary DIM: 75 mg oral dose (300 mg of 25% formulation), single individual
Procedure: The invention also provides a method for determining the urine level of DIM in a subject following oral administration of Diindolylmethane. In this method 300 mg or more of formulated DIM (75 mg or more of actual DIM) are taken with 8 ounces of water. Urine samples are obtained every 90 minutes for a period of 360 minutes. GC-MS operating conditions included were based on a published GC-MS analysis technique for DIM in urine (Sepkovic D W, Bradlow H L, Bell M, “Quantitative Determination of 3,3′-Diindolylmethane in the Urine of Individuals Receiving Indole-3-Carbinol” J. Nutrition (2002 in press). The following technique for analyzing DIM in urine samples was used: • 1. A 1 cc aliquot of urine for assay of diindolylmethane is mixed with 1 cc of sodium acetate buffer (pH 4.8) and 20 ul Beta-Glucuronidase from Helix Pomatia (110,200 units/ml: Sigma, St. Louis, Mo.). • 2. The solution is incubated at 40° C. for 24 hours. • 3. An internal standard of 4,4′dichlorodiindolylmethane is then added. • 4. The sample is then extracted in twice equal volume of chloroform and the sample vortexed and reduced to dryness under vacuum. • 5. The dried residue is dissolved in 20 uL of anhydrous pyridine and derivatized with 80 ul of N2O-bis-(timethyl-silyl)trifluoroacetamide (BFSTA) (Pierce Biochemical Co, Rockford, Ill.). The sample is heated to 100° C. for one hour. • 6. The derivatized sample is then injected into a Gas Chromatography Mass Spectrometer (GC-MS) in single ion monitoring mode recording results at a derivatized mass of 390. The following ions are monitored: m/z 390 (primary), 391,392 (confirmatory). Area for peak 390 is measured. • 7. Peaks are compared to a standard curve for pure diindoylylmethane in known concentrations as a standard. • 8. Creatinine in each 90 minute timed urine sample was measured by a standard Kinetic Alkaline Picrate (KAP) colormetric assay with results in mg of creatinine per cc of urine. • 9. Results obtained for DIM from the 1 cc aliquot of each timed urine sample are reported as nanograms of DIM per mg of Creatinine. This permits comparisons of urine samples of different water content in different timed samples eliminating the effects of changing hydration status of the human subject.
A related gas chromatography-mass spectrometry (GC-MS) method for the quantitation of Diindolylmethane in urine was developed. This technique is simpler, requiring less sample preparation but similar use of GC-MS analysis and provides results expressed as nanograms of Diindolylmethane per mg of Creatinine (ng DIM per mg Cre). Since production rates of Creatinine (Cre) are constant in an individual this technique allows comparison of urine samples from different times having differing water content. Sepkovic, D. W., Bradlow, H. L. Bell, M., Quantitative Determination of 3,3′-Diindolylmethane in the Urine of Individuals Receiving Indole-3-Carbinol, J. Nutrition (in press 2002).
A single individual was studied after taking 75 mg Diindolylmethane (300 mg of a 25% absorption-enhance formulation of Diindolylmethane) as a single dose after waiting 4 days since prior use of Diindolylmethane. Urine samples were collected every 90 minutes for a total of 360 minutes, frozen, and subsequently analyzed as described.

[3] = tested on: cutaneous warts (verrucae vulgaris); assay: Oral Diindolylmethane with Pregnenolone for cutaneous warts (case three); format: in vivo, human; conditions: patient three; dose increased to maximum of 150 mg/day over 6 weeks
Procedure: Pregnenolone at 50 mg/day in a capsule form was added for immune enhancement.

[4] = tested on: verrucae involving the plantar skin; assay: Oral Diindolylmethane for childhood warts (case two); format: in vivo, human; conditions: child two; 75 mg/day (3 mg/kg/day)
Text: The usefulness of oral forms of Diindolylmethane in treating verrucous disease of childhood is illustrated by the case of C. B. The subject is a child with classic verrucae involving the plantar skin of one foot. The process began as a single wart, which was frozen with liquid nitrogen by a pediatrician. […] Within 2 months, however, a new wart recurred at the sight of the original scar. Upon recurrence the primary lesion measured approximately 0.75 cm in diameter but was now circled by a number of smaller satellite lesions surrounding the recurrent primary wart.
Treatment was initiated with 75 mg/day of Diindolylmethane in an absorbable formulation (300 mg total formula weight). With the patient weighing 25 kg, this provided 3 mg/kg/day of Diindolylmethane and 12 mg/kg/day of the formulation. […] There was no pain or scarring associated with the gradual resolution.

[5] = tested on: HPV-related cervical dysplasia; assay: Oral Diindolylmethane for HPV-related cervical dysplasia (case histories and open pilot study); conditions: four women, 112 mg/day actual Diindolylmethane
Text: Women with moderate to severe dyplasia on cervical biopsies volunteered for an open trial of oral Diindolylmethane supplementation.
Four women, meeting the criteria of moderate to severe HPV-related cervical dysplasia were included in a pilot study.

[6] = tested on: Recurrent Laryngeal Papillomatosis (RRP); assay: Oral therapy of Recurrent Laryngeal Papillomatosis in a child (case one); format: in vivo, human; conditions: child A. L.; oral I3C 5-7 mg per kg, 6 months; no lengthening of intervals between surgical procedures
Procedure: The following describes oral Diindolylmethane therapy for the Recurrent Laryngeal Papillomatosis (RRP), a rare condition in which wart like lesions develop in and around the larynx and vocal cords in association with HPV. patient one is a child with RRP. They were diagnosed with RRP. Before Diindolylmethane therapy they had undergone 21 laryngoscopic surgical procedures for recurrent laryngeal papillomas compromising their airway. […] Tracheostomy was performed in 1998 to provide a more secure airway. Diindolylmethane in an absorbable formulation according to U.S. Pat. No. […] Surgical frequency increased immediately to two months.

laryngeal papillomatosis = conditions: cited from earlier work
[7] = tested on: cervical intraepithelial neoplasia (CIN); conditions: after 3 months on either 200 mg/day or 400 mg/day of I3C; 8 of 17; cited from earlier work
[8] = dietary supplementation with I3C, laryngeal papillomatosis

SMILES	Augmentation in Diindolylmethane blood levels from the low to high dose [1]	Urinary DIM ([2]; 90 minutes) [ng/mg Cre]	Urinary DIM ([2]; 180 minutes) [ng/mg Cre]	Urinary DIM ([2]; 270 minutes) [ng/mg Cre]	Urinary DIM ([2]; 360 minutes) [ng/mg Cre]	Plateau of urinary Diindolylmethane ([2]; 75 mg oral dose, around 180 minutes following oral dosing) [ng/mg Creatinine]	Side effects [3]	Side effects associated with the oral treatment [4]	Side effects or adverse events [5]	Clinical response of laryngeal papillomas [6]	Doses with neurologic and gastrointestinal toxicity (laryngeal papillomatosis; clinical use of I3C)	Disappearance of existing lesions (laryngeal papillomatosis; [8])	Patients with cessation of papilloma growth (laryngeal papillomatosis; [8]) [%]	Maximal tolerated dose (laryngeal papillomatosis; gastrointestinal and central nervous system side effects on increasing the dose) [mg/kg]	Treated patients with normalized cervical biopsy [7] [%]
c1ccc2c(Cc3c[nH]c4ccccc34)c[nH]c2c1 [Diindolylmethane]	more than 3 times	2.6	3.82	3.30	2.50	3.5	without side effects	No side effects	no significant side effects or adverse events						
OCc1c[nH]c2ccccc12 [I3C, Indole-3-carbinol]										failed to produce clinical improvement	more than 400 mg per day	did not result in the disappearance of existing lesions in any patient	33	5 to 7	50
